# Results: US20240415804A1, “METHOD OF TREATING PANCREATIC CANCER” (University of South Florida, priority 2022, published 2024)
# How the values were obtained:
# UN-KC-6141 cells = experiment: Apoptosis by flow cytometry (Annexin V and PI), UN-KC-6141; assay type: cell-based, mouse; settings: API 10, 20, 30, 40, 50 μM, 24 h
# Description: (§1) Panc02 and UN-KC-6141 cells were seeded in 6-well plates allowed to grow to 50-60% confluency. Cells were then treated with API at a dose-dependent concentration (10, 20, 30, 40, 50 μM) or DMSO (1%) as vehicle control and incubated for 24 h at 37° C. in a humidified atmosphere of 5% CO2. Cells were collected and stained with a FITC Annexin V Apoptosis Detection Kit I (BD Bioscience, San Jose, CA, USA) according to the manufacturer's instructions. Acquisition of samples was performed using a flow cytometer BD LSRII (BD Biosciences Immunocytometry Systems, San Jose, CA, USA). FlowJo v10.8 software (TreeStar Inc., Ashland, OR, USA) was used for data analysis.
# Panc02 cells = experiment: Apoptosis by flow cytometry (Annexin V and PI), Panc02; assay type: cell-based, mouse; settings: API 10, 20, 30, 40, 50 μM, 24 h
# Description: as §1
# miR-155 = miR-155 gene expression in tumors of KC-HPC mice; assay type: in vivo, mouse; settings: API 25 mg/kg IP three times per week for 17 days, vs vehicle
# Description: To build on these findings, the inventors then used a novel pancreatic cancer cell line, UN-KC-6141, that resembles human PC due to its expression of a mutated Kras and generated mice harboring these tumor cells, called KC-HPC mice. Such mice were treated with API at a dose of 25 mg/kg (IP) three times per week for 17 days. The inventors examined if API also targets miR-155 and regulates SHIP-1 in the tumors from KC-HPC mouse model. […] The HPC models were euthanized 21-28 days post-injection, while the KC-HPC models were euthanized 16-17 days post-injection. miRNA extraction of PC cells (treated with miR-155 inhibitor and/or API), BM and digested pancreatic tumors cells was performed using a mirVana miRNA Isolation Kit (Applied Biosystems, Waltham, MA, USA) as per the manufacturer's instructions. miRNA was reverse transcribed into cDNA using TaqMan miRNA reverse transcription kit (Applied Biosystems) with gene-specific stem-loop RT primers according to the manufacturer's instructions. cDNA was then loaded onto either mmu-miR-155 or ipu-miR-155 TaqMan miRNA assays (Assay IDs: 002571 and 467534_mat) using TaqMan Fast Universal PCR Master mix (Applied Biosystems) and miR-155 detected with an Eppendorf Master cycler real plex 4. […]
# CD40 = experiment: Flow cytometry of CD40 expression on M1 TAM in tumors of KC-HPC mice; assay type: in vivo, mouse; settings: KC-HPC-API vs KC-HPC mice
# Description: The inventors then assessed the expression of CD40 (a T cell co-stimulation marker) on M1 TAM (gated as MHC-II^+ and CD206) within the tumor from KC-HPC vs. KC-HPC-API mice. […] The femur and tibia were cut at the pelvic-hip joint and muscle was removed. The femurs and tibias were cut at the ends and flushed with a 30-gauge needle and 10 cc syringe filled with completed RPMI media until bone was white onto a petri dish. Pelleted bone marrow (BM) cells were treated with Red Blood Cell (RBC) lysis buffer (eBioscience, Waltham, MA, USA), according to the manufacturer's instructions, and then filtered through a […] nylon mesh cell strainer in 1×PBS. All pancreatic tumors were manually cut into ˜1-2 mm^3 fragments with a sterile razor blade and then enzymatically digested with Collagenase, type IV (Sigma-Aldrich), DNase, type IV (Sigma-Aldrich) and Hyaluronidase, Type V (Sigma-Aldrich) in Hank's Balanced Salt Solution for 1 h, spun down and washed as described in previous studies^61. Digested pancreatic tumor samples were treated with RBC lysis buffer and then filtered through a […] nylon mesh cell strainer in 1×PBS. Bone marrow and digested pancreatic tumor single cell suspensions were counted with a hemocytometer and then resuspended in 3% FBS/PBS. […]
structure (smiles),measurement,setting,value
"O=c1cc(-c2ccc(O)cc2)oc2cc(O)cc(O)c12 [API, 40,5,7-Trihydroxyflavone, 5,7-Dihydroxy-2-(4-hydroxyphenyl)-4-benzopyrone]",apoptosis (Annexin V and PI),UN-KC-6141 cells,induces apoptosis
same,apoptosis (Annexin V and PI),Panc02 cells,induces apoptosis
same,miR-155 gene expression in tumor,miR-155,significantly reduced
same,CD40 expression on M1 TAM in tumor,CD40,significantly upregulated
